CC(=CC(C)=Nc1c(C)cccc1C)Nc1c(C)cccc1C
solubility (mole fraction)
Settings	273.15 K	278.15 K	283.15 K	288.15 K	293.15 K	298.15 K	303.15 K
in THF	0.345	0.362	0.381	0.403	0.429	0.456	0.487
in diethyl ether	0.188	0.204	0.22	0.239	0.265	0.295	0.334
in ethanol	0.0093	0.0099	0.0107	0.0117	0.0129	0.0143	0.0166
in methanol	0.0015	0.0017	0.002	0.0024	0.0029	0.0033	0.0041
in n-hexane	0.167	0.194	0.223	0.253	0.285	0.316	0.347
in toluene	0.266	0.296	0.324	0.347	0.374	0.433	0.503

Source: BigSolDB 2.1
